Measured values taken from patent US4760078A, “Immunomodulator 1,2-dithiol-3-thione derivative composition, use method and process of producing the same” (priority 1986, dated 1988).
Read-outs that look alike come from different tables or passages of the source.

How the values were obtained:
mouse spleen cells [1] = assay: Action against blast formation reaction of mouse spleen cells (ConA-induced DNA synthesis, 3H-thymidine intake); assay type: cell-based, BALB/C mouse; details: ConA 2 μg/ml, read-out: Activity (relative activity, 3H-thymidine intake, control = 100)
mouse spleen cells [2] = assay: as above; assay type: cell-based, BALB/C mouse; details: Experiment 1, 10^-4 M, ConA 2 μg/ml, read-out: Activity (relative activity, 3H-thymidine intake, control = 100)
Experimental: Action Against Blast Formation Reaction of Mouse Spleen Cells The action of the compound of the present invention against the DNA synthesis of mouse spleen cells, which synthesis is induced by Concanavalin A (hereinafter referred to as ConA for short) was examined. 1×10^5 spleen cells of BALB/C mouse (female, 10 weeks old) were incubated with 2 μg/ml of ConA and 10^-6, 10^-5, or 10^-4 M of the compound of the present invention in RPMI 1640 medium containing 10% […] at 37° C. in an atmosphere containing 5% CO2 for 48 hours. Subsequently, ^3 H-thymidine was added to the culture and then the culture was incubated for another 18 hours. The incubated cells were collected with a harvester and the intake of ^3 H-thymidine by the cells was determined using a scintillation counter. The activity in the table is relative activity when the activity of the control is 100.

mice = assay: Acute toxicity (oral); assay type: in vivo, ddY mice; details: 300 mg/kg, 6 mice per group
From the text: Oral toxicity of the compound of the present invention was examined using mice.
The compound of the present invention was suspended in 0.5% solution of methyl cellulose and the suspension was orally administered to ddY mice (male, 7 weeks old, 6 mice per group). The conditions of the mice were observed and the number of deaths in 14 days from administration was checked.

immune system = details: published by the inventors, Pharmaceutical Society of Japan 1984; cited from earlier work
rat EAE = assay: Action against experimental allergic encephalomyelitis (EAE) of rats; assay type: in vivo, Lewis rat; details: subcutaneous, 8 times; for Survival Rate: 50 days after inoculation, control 6/8; for Crisis Day (Mean): control 9.1 ± 0.6; for Clin. Score (Mean): score 0 to 5, control 1.0 ± 0.4, * p < 0.01
[3] = system: spleen cells producing anti-SRBC antibody; assay: Antibody production-promoting action (PFC number against SRBC, Jerne's method); assay type: in vivo, ICR mice; details: oral, twice (day of immunization and next day), 3 days after immunization
Experimental: Antibody Production-Promoting Action
The action of the compound of the present invention with respect to the antibody production of mouse against sheep red blood cells (SRBC) was examined.
To tail veins of ICR mice (female, 7 weeks old, 4 mice in each group), 5×10^7 SRBC were injected to immunize the mice. The compound of the present invention suspended in 0.5% methyl cellulose solution was orally administered twice to the mice on the day of immunization and on the next day. Three days after immunization, the number of spleen cells producing anti-SRBC antibody (PFC number) was checked by Jerne's method (Science Vol. 140, p. 405 (1963)).
In Table 2, the activity is the relative PFC number when the PFC number of the control is 100.

[4] = cited from earlier work

Row | Structure (SMILES) | activity at 10 µM (mouse spleen cells [1]; Experiment 1, 10^-5 M) [%] | activity at 1 µM (mouse spleen cells [1]; Experiment 1, 10^-6 M) [%] | activity at 10 µM (mouse spleen cells [1]; Experiment 2, 10^-5 M) [%] | activity at 1 µM (mouse spleen cells [1]; Experiment 2, 10^-6 M) [%] | activity at 100 µM (mouse spleen cells [2]) [%] | Activity (relative PFC number, control = 100) ([3]; 0.4 mg/kg) | Activity (relative PFC number, control = 100) ([3]; 2.0 mg/kg) | other results
1 | O=C(O)CCCCC1CCSS1 (racemic) [Lipoic Acid, DL-thioctic acid, reference compound] | 146 | 142 | 159 | 95 | 234 |  |  | number of deaths in 14 days from administration (mice): one mouse in 6 mice died; immunomodulating effect (immune system): excellent immunomodulating effect
2 | S=c1cc(C=CC=Cc2ccccc2)ss1 [Compound 1, 5-(4-phenyl-1,3-butadienyl)-1,2-dithiol-3-thione] | 281 | 250 |  |  | 196 | 258 | 149 | Survival Rate (rat EAE; 0.3 mg/kg/d): 8/8; Crisis Day (Mean) (rat EAE; 0.3 mg/kg/d): 10.5 ± 0.9; Clin. Score (Mean) (rat EAE; 0.3 mg/kg/d): 0.3 ± 0.1; Survival Rate (rat EAE; 3 mg/kg/d): 8/8; Crisis Day (Mean) (rat EAE; 3 mg/kg/d): 10.3 ± 0.7; Clin. Score (Mean) (rat EAE; 3 mg/kg/d): 0.2 ± 0.1
3 | COc1ccc(C=CC=Cc2cc(=S)ss2)cc1 [Compound 3, 5-{4-(4-methoxyphenyl)-1,3-butadienyl}-1,2-dithiol-3-thione] | 338 | 175 |  |  | 291 | 117 | 186 | 
4 | Cc1ccc(C=CC=Cc2cc(=S)ss2)cc1 [Compound 5, 5-{4-(p-toluyl)-1,3-butadienyl}-1,2-dithiol-3-thione] |  |  | 228 | 130 |  |  |  | 
5 | c1ccc([C@H]2CN3CCSC3=N2)cc1 [levamisole] |  |  |  |  |  |  |  | side effects ([4]; clinical use, reported): vomiturition, eruption and hemotoxicity; most serious side effect ([4]; disappears upon stopping the administration): granulocytopenia
